From PMC8047011, “Enantiomers of 2-methylglutamate and 2-methylglutamine selectively impact mouse brain metabolism and behavior” (Scientific Reports, 2021)

What was measured:
C57Bl/6 mice [1] = experiment: Fear conditioning; format: in vivo, mouse; settings: chronic 10 mg/kg/day IP, week 4 of testing
Description: See Supplementary Methods for details. […]
Fear Conditioning: Coulbourn Instruments (Holliston, MA, USA) fear conditioning system and FreezeFrame software were used for analysis. The experiment consisted of 1 day of training, 1 day of contextual testing, and 1 day of cued testing. The training and contextual testing chambers were identical with similar context. The walls were made of aluminum. The floor was […]
a gray metal grid through which the US was delivered, and the chambers used yellow color house light and were scented with mint extract to produce a unique smell in the chambers. The chambers were cleaned with a 10% simple green solution (Sunshine Makers, Inc.) between each mouse. The cued testing chambers were circular-shaped, made of plastic, used blue color house light, and were scented with vanilla extract to create a unique context different from training and contextual testing. This chamber was cleaned with 70% ethanol between each mouse. Both chambers were mounted within specially designed sound-attenuating chambers.
Each chamber had speakers mounted on the wall and included an exhaust fan and camera. On Day 1 training, mice were placed individually into a training chamber for 200 seconds. A tone (20 seconds, 80 dB, 2 kHz) was presented to the mouse, followed by an electrical shock (intensity 0.5 mA, 2 seconds) 18 seconds after the end of the tone (Misane et al. 2005, Burman 2014, Lugo et al. 2014). This procedure was repeated two times with a 60 second interval from the end of the shock to the next tone. The mouse was removed from the chamber and returned to the home cage 60 seconds after the last shock. On Day 2, the mice were placed back into the training chamber without any tone or shock for contextual memory testing for 15 minutes. On Day 3, the mice were placed into the cued testing chamber with just tones (20 seconds, 80dB, 2 kHz) presented 3 times with 80 second intervals after 200 seconds of habituation. Overall, the mice received the tone and shock pairings only on the training day. An overhead camera was used to record mice freezing behavior. The fear conditioning test was conducted after four weeks of exposure to compounds or vehicle.
We have shown when studying the cognitive enhancement in normal, young control mice, overtraining of the animals will lead to saturation of behavioral learning, making it very difficult to display pharmacological improvements in behavioral paradigms. We therefore chose less training trials per day and less number of training days in the Morris water maze to increase the likelihood of observing drug effects. Likewise, the fear conditioning task, we chose lower shock

C57Bl/6 mice [2] = experiment: Morris water maze; format: in vivo, mouse; settings: chronic 10 mg/kg/day IP, weeks 2 and 3 of testing
Description: See Supplementary Methods for details.
Elevated Plus Maze: The maze was made of acrylonitrile butadiene styrene (ABS) plastic and had two open arms and two close arms that were 30 cm long and 5 cm wide. The center area where the open and close arms meet was 5 cm x 5 cm. The open arms had 2 mm lips at the edges, and the closed arms had 15 cm opaque walls. The maze was elevated 50 cm and surrounded by privacy blinds during the test. The maze was illuminated to 7 lux using red light throughout the test. Each mouse was released in the center of the maze and given 5 min to explore the maze. Duration and frequency in each zone of the maze were recorded using Ethovision (Noldus Information Technology, Wageningen, the Netherlands) tracking software.
Y Maze Spontaneous Alternation: The Y maze is made of plastic with 3 arms in a "Y" shape.
The arms are labelled as Arm A, B, and C; Arm A is 20.32 cm (L) x 5 cm (W) 12.7 cm (H), Arm B and C are 15.24 cm (L) x 5 cm (W), and 12.7 cm (H). The test is based on the willingness of rodents to explore a novel environment and designed to measure spontaneous alternations in rodents. Each mouse was placed in the center of the maze facing Arm B. The first entry was excluded from data analysis because the animals were led to the initial arm entry by the experimenter. Using an overhead camera, the number of arm entries and alternations were recorded for 5 minutes. An arm entry is when all four paws enter into a new arm of the maze.
The apparatus was cleaned with 1% Virkon. Parameters recorded were % alternation and the total number of entries into arms. The Y maze test was conducted after two weeks of exposure […]
A ping pong ball was erected from the submerged platform and the mice were given two trials of Visible Platform Training to ensure they lacked gross sensorimotor deficit and visual impairment. The escape latency, distance moved, duration in zones, and velocity of the animals were recorded using Ethovision XT (Noldus Information Technology, Wageningen, Netherlands). […]

| SMILES | Fear conditioning Day 1, learning of the tone-shock association (C57Bl/6 mice [1]) | Fear conditioning Day 2, contextual recall vs vehicle (C57Bl/6 mice [1]) | Fear conditioning Day 3, freezing during cued recall or tone presentation vs vehicle (C57Bl/6 mice [1]) | Learning in the Morris water maze (C57Bl/6 mice [2]) |
| --- | --- | --- | --- | --- |
| CC(N)(CCC(N)=O)C(=O)O (racemic) [rac-2MeGln, rac-2-methylglutamine] | equivalent learning of the tone-shock association | no significant effect of treatments | no significant differences detected | no significant effect of treatment |
| C[C@](N)(CCC(=O)O)C(=O)O [(S)-2MeGlu, (S)-2-methylglutamic acid] | equivalent learning of the tone-shock association | no significant effect of treatments | no significant differences detected | no significant effect of treatment |
| C[C@@](N)(CCC(=O)O)C(=O)O [(R)-2MeGlu, (R)-2-methylglutamic acid] | equivalent learning of the tone-shock association | no significant effect of treatments | no significant differences detected | no significant effect of treatment |
